Assay results taken from PubChem BioAssay AID1555 (Sanford-Burnham Center for Chemical Genomics, 2009).

Tested on: human liver microsomes, LC/MS/MS parent remaining, 60 min
Test: metabolic stability in human liver microsomes, late-stage follow-up, ADME assay, biochemical (AID 1555)
Conditions: at 1 µM, stronger effect = lower value

percent remaining: 47%
percent remaining (measured here: remaining without NADPH control): 100%
Compound: C=CCn1c(SCC(=O)c2ccc(O)c(O)c2)nnc1-c1ccccc1OC
